Results as given in patent US9796711B2, “Substituted pyrazolo[3,4-b]pyridin-6-carboxylic acids and method of use” (AbbVie S.àr.l., priority 2015, dated 2017).
Like-named read-outs stand apart in the source and are kept apart here.

Target: T1, CFTR ΔF508 (Homo sapiens, UniProt P13569, DEL508-508)
T1 construct: bronchial epithelial cells isolated from CF patients homozygous for the CFTR ΔF508 mutation; McGill University; Asterand; University of North Carolina hAEC-CF; host or cells: primary human bronchial epithelial cells from CF patients homozygous for ΔF508
T1 sequence (P13569 with tags, fused parts or gaps DEL508-508): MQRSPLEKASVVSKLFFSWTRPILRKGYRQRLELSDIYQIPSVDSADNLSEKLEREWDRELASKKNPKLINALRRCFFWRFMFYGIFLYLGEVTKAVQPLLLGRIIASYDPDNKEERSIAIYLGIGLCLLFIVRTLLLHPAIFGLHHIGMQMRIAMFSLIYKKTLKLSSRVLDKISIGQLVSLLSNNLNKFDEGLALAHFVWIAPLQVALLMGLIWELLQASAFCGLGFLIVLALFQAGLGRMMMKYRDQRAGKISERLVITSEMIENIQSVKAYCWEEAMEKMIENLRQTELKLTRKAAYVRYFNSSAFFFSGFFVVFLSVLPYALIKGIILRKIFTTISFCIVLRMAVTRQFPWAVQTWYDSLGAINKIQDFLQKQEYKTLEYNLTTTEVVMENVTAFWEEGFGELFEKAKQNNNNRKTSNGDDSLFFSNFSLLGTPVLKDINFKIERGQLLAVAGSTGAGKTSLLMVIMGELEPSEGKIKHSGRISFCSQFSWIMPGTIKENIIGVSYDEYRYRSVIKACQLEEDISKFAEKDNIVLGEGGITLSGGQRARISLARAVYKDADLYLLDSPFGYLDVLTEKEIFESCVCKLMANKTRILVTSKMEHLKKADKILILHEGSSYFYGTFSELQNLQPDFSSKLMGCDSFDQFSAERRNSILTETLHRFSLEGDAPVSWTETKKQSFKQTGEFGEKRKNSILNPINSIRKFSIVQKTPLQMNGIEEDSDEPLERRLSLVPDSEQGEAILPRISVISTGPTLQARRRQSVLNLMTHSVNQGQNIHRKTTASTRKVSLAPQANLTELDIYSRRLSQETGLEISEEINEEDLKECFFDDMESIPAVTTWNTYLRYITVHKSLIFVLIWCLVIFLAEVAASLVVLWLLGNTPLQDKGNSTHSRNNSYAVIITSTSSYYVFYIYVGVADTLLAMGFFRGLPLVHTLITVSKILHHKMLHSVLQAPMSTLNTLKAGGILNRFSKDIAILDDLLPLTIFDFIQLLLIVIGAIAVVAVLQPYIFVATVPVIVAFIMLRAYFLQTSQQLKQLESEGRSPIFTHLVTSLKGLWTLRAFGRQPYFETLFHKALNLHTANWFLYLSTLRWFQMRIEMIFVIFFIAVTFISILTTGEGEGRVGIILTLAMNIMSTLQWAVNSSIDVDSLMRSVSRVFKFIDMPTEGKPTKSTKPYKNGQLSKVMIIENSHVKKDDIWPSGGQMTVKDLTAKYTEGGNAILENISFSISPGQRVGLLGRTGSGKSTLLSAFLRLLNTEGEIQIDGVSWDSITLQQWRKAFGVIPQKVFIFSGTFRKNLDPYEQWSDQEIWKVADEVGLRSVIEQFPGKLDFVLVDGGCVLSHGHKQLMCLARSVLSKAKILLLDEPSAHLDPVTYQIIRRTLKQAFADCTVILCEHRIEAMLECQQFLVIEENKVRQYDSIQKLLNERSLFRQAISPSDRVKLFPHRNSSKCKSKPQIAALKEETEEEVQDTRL
Assay: Chronic TECC assay on primary bronchial epithelial cells (corrector, co-corrector and potentiator)
Type: cell-based
Description: Primary Bronchial Epithelial Cells Protocol
The TECC (Tranepithelial Clamp Circuit, EP-design) assay measures the functionality of the cystic fibrosis Transmembrane Conductance regulator (CFTR) by measuring the short circuit current (Isc) generated over the basolateral and apical membrane of lung epithelial cells. In TECC the transepithelial potential PD and transepithelial resistance (Rt)) are measured in an open circuit and transformed to Ieq using Ohm's law. 24 Wells can be measured simultaneously allowing a higher throughput compared to Ussing chambers.
For this purpose, bronchial epithelial cells isolated from CF patients homozygous for the CFTR ΔF508 mutation (hAEC-CF, Epithelix, Geneva, Switzerland; McGill University, Montreal, Qc; Asterand, Detroit, Mich.; University of North Carolina, Chapel Hill, N.C.) are plated on type IV collagen-coated Transwell® supports (Costar). Human airway epithelia are generated by provision of an air-liquid interface for 21 days to form well-differentiated polarized cultures that resemble in vivo pseudo-stratified ciliated epithelium (Fulcher, M. L., Gabriel, S., Burns, K. A., Yankaskas, J. R., Randell, S. H., 2005. Well-differentiated human airway epithelial cell cultures. Methods Mol. Med. 107, 183-206). The differentiated cells are treated with test corrector compound(s) (corrector alone or in combination with co-corrector, 4-[(2R,4R)-4-({[1-(2,2-difluoro-1,3-benzodioxol-5-yl)cyclopropyl]carbonyl}amino)-7-methoxy-3,4-dihydro-2H-chromen-2-yl]benzoic acid (G924806/A-1618261) (“acute”) or test corrector compounds, co-corrector and potentiator, N-(3-carbamoyl-5,5,7,7-tetramethyl-4,7-dihydro-5H-thieno[2,3-c]pyran-2-yl)-1H-pyrazole-5-carboxamide GLPG1837, (“chronic”) for 24 hours basolaterally to allow sufficient expression of properly folded CFTR protein on the membrane. All compound plates contained negative controls (DMSO) and positive controls (0.15 μM, 4-[(2R,4R)-4-({[1-(2,2-difluoro-1,3-benzodioxol-5-yl)cyclopropyl]carbonyl}amino)-7-(difluoromethoxy)-3,4-dihydro-2H-chromen-2-yl]benzoic acid).
For electrophysiological recording of the “chronic” experiments, the human airway epithelia are mounted in the TECC heating plate for electrophysiological measurement and kept at 37° C. The epithelia are bathed in a NaCl-Ringer solution (120 mM NaCl, 25 mM NaHCO3, 1.2 mM CaCl2, 1.2 mM MgCl2, 0.8 mM KH2PO4, 0.8 mM K2HPO4, pH 7.4, 5 mM glucose) on both the basolateral and apical sides. Test compounds (corrector, co-corrector, 4-[(2R,4R)-4-({[1-(2,2-difluoro-1,3-benzodioxol-5-yl)cyclopropyl]carbonyl}amino)-7-(difluoromethoxy)-3,4-dihydro-2H-chromen-2-yl]benzoic acid, and potentiator, N-(3-carbamoyl-5,5,7,7-tetramethyl-4,7-dihydro-5H-thieno[2,3-c]pyran-2-yl)-1H-pyrazole-5-carboxamide), are re-added to the recording solution prior to measurement. Apical amiloride is used to inhibit the endogenous ENaC currents while forskolin is applied on both apical and basolateral side to stimulate CFTR. Measurements are done during a 20 minute timeframe with recordings every 2 minutes. The increase in Ieq is used as a measure for the increased CFTR activity, EC50 values can be generated by measuring impact of different concentrations of compound on Ieq on primary cells, for this purpose each transwell is treated with a different compound concentration. Inhibitor-172, an inhibitor specific for CFTR, is used to test the specificity of the tested compounds. Raw data were normalized to percentage activity values using the equation: 100×(Sample−Negative control)/(Positive control−Negative Control).

[1] = chronic TECC, Ieq = calculations based on the maximum current, with co-corrector and potentiator, 24 hours
[2] = chronic TECC, Ieq = calculations based on the maximum current, with co-corrector and potentiator, 24 hours, read-out: EC50 (nM) (Ieq)
[3] = chronic TECC, AUC = full area under the curve upon forskolin stimulation, with co-corrector and potentiator, 24 hours
[4] = chronic TECC, AUC = full area under the curve upon forskolin stimulation, with co-corrector and potentiator, 24 hours, read-out: EC50 (nM) (AUC)

SMILES: CC(C)c1nn(-c2cccc(N3CCOCC3)c2)c2nc(C(=O)O)cc(-c3cnc(N4CCC(C#N)CC4)nc3)c12 [compound 204, 4-[2-(4-cyanopiperidin-1-yl)pyrimidin-5-yl]-1-[3-(morpholin-4-yl)phenyl]-3-(propan-2-yl)-1H-pyrazolo[3,4-b]pyridine-6-carboxylic acid]
- % Activity at 1 μM (Ieq*) [1]: 241%
- EC50 [2]: < 30 nM

SMILES: CC(C)c1nn(-c2ccc(F)cc2)c2nc(C(=O)O)cc(N3CCC(C(C)N4CCCC4)CC3)c12 (stereo not shown) [compound 789, 1-(4-fluorophenyl)-3-(propan-2-yl)-4-{4-[1-(pyrrolidin-1-yl)ethyl]piperidin-1-yl}-1H-pyrazolo[3,4-b]pyridine-6-carboxylic acid]
- % Activity at 1 μM (AUC**) [3]: 235%

SMILES: CC(C)c1nn(-c2ccc(F)cc2)c2nc(C(=O)O)cc(N3CCC(C(C)(C)O)CC3)c12 [compound 656, 1-(4-fluorophenyl)-4-[4-(2-hydroxypropan-2-yl)piperidin-1-yl]-3-(propan-2-yl)-1H-pyrazolo[3,4-b]pyridine-6-carboxylic acid]
- EC50 [4]: 48 nM

SMILES: O=C(O)c1cc(N2CCC(CN3CCCC3)CC2)c2c(C3CCC3)nn(-c3ccccc3)c2n1 [compound 557, 3-cyclobutyl-1-phenyl-4-{4-[(pyrrolidin-1-yl)methyl]piperidin-1-yl}-1H-pyrazolo[3,4-b]pyridine-6-carboxylic acid]
- % Activity at 1 μM (AUC**) [3]: 262%
- % Activity at 3 μM (AUC) [3]: 384%

SMILES: COCCN1CCN(c2ccc(-c3cc(C(=O)O)nc4c3c(C3CCC3)nn4C3CCCCC3)cn2)CC1 [compound 878, 3-cyclobutyl-1-cyclohexyl-4-{6-[4-(2-methoxyethyl)piperazin-1-yl]pyridin-3-yl}-1H-pyrazolo[3,4-b]pyridine-6-carboxylic acid]
- % Activity at 1 μM (AUC**) [3]: 170%

SMILES: CC(C)c1nn(-c2cccc(N3CCOCC3)n2)c2nc(C(=O)O)cc(-c3ccc(N4CCOCC4)cc3)c12 [compound 244, 4-[4-(morpholin-4-yl)phenyl]-1-[6-(morpholin-4-yl)pyridin-2-yl]-3-(propan-2-yl)-1H-pyrazolo[3,4-b]pyridine-6-carboxylic acid]
- % Activity at 1 μM (Ieq*) [1]: 210%
- EC50 [2]: < 30 nM

SMILES: O=C(O)c1cc(N2CCC(CCN3CCCC3)CC2)c2c(C3CCC3)nn(-c3ccccc3)c2n1 [compound 574, 3-cyclobutyl-1-phenyl-4-{4-[2-(pyrrolidin-1-yl)ethyl]piperidin-1-yl}-1H-pyrazolo[3,4-b]pyridine-6-carboxylic acid]
- % Activity at 1 μM (AUC**) [3]: 190%

SMILES: CC(C)N1CCC2(CCN(c3cc(C(=O)O)nc4c3c(C3CCC3)nn4-c3ccc(F)cc3)CC2)CC1 [compound 890, 3-cyclobutyl-1-(4-fluorophenyl)-4-[9-(propan-2-yl)-3,9-diazaspiro[5.5]undecan-3-yl]-1H-pyrazolo[3,4-b]pyridine-6-carboxylic acid]
- % Activity at 1 μM (AUC**) [3]: 366.6667%

SMILES: COCCN1CCC2(CC1)CCN(c1cc(C(=O)O)nc3c1c(C1CCC1)nn3-c1ccc(F)cc1)CC2 [compound 897, 3-cyclobutyl-1-(4-fluorophenyl)-4-[9-(2-methoxyethyl)-3,9-diazaspiro[5.5]undecan-3-yl]-1H-pyrazolo[3,4-b]pyridine-6-carboxylic acid]
- % Activity at 1 μM (AUC**) [3]: 375%

SMILES: COC[C@H]1CCN(CC2CCN(c3cc(C(=O)O)nc4c3c(C3CCC3)nn4-c3ccccc3)CC2)C1 [compound 804, 3-cyclobutyl-4-(4-{[(3S)-3-(methoxymethyl)pyrrolidin-1-yl]methyl}piperidin-1-yl)-1-phenyl-1H-pyrazolo[3,4-b]pyridine-6-carboxylic acid]
- % Activity at 1 μM (AUC**) [3]: 290%

SMILES: O=C(O)c1cc(N2CCC(N3CCOCC3)CC2)c2c(C3CCC3)nn(-c3ccccc3)c2n1 [compound 560, 3-cyclobutyl-4-[4-(morpholin-4-yl)piperidin-1-yl]-1-phenyl-1H-pyrazolo[3,4-b]pyridine-6-carboxylic acid]
- EC50: < 30 nM

SMILES: O=C(O)c1cc(N2CCC(N3CCOCC3)CC2)c2c(C3CCC3)nn(-c3cccc(OC(F)F)c3)c2n1 [compound 910, 3-cyclobutyl-1-[3-(difluoromethoxy)phenyl]-4-[4-(morpholin-4-yl)piperidin-1-yl]-1H-pyrazolo[3,4-b]pyridine-6-carboxylic acid]
- % Activity at 3 μM (AUC) [3]: 531.5026%

SMILES: COC1CCN(c2cc(C(=O)O)nc3c2c(C(C)C)nn3-c2cccc(C)c2)CC1 [compound 192, 4-(4-methoxypiperidin-1-yl)-1-(3-methylphenyl)-3-(propan-2-yl)-1H-pyrazolo[3,4-b]pyridine-6-carboxylic acid]
- % Activity at 1 μM (Ieq*) [1]: 235%
- EC50 [2]: < 30 nM

SMILES: O=C(O)c1cc(N2CCC3(CC2)CCN(C2CC2)CC3)c2c(C3CCC3)nn(-c3ccc(F)cc3)c2n1 [compound 887, 3-cyclobutyl-4-(9-cyclopropyl-3,9-diazaspiro[5.5]undecan-3-yl)-1-(4-fluorophenyl)-1H-pyrazolo[3,4-b]pyridine-6-carboxylic acid]
- % Activity at 1 μM (AUC**) [3]: 273.3871%
- EC50 [4]: 1340 nM

SMILES: O=C(O)c1cc(N2CCC(CCN3CCOCC3)CC2)c2c(C3CCC3)nn(-c3ccccc3)c2n1 [compound 575, 3-cyclobutyl-4-{4-[2-(morpholin-4-yl)ethyl]piperidin-1-yl}-1-phenyl-1H-pyrazolo[3,4-b]pyridine-6-carboxylic acid]
- EC50: 100 nM
- % Activity at 1 μM (AUC**) [3]: 290%

SMILES: O=C(O)c1cc(N2CCC(N3CCCCC3)CC2)c2c(C3CCC3)nn(-c3ccccc3)c2n1 [compound 576, 4-([1,4′-bipiperidin]-1′-yl)-3-cyclobutyl-1-phenyl-1H-pyrazolo[3,4-b]pyridine-6-carboxylic acid]
- % Activity at 1 μM (AUC**) [3]: 183%

SMILES: COCCC1CCN(c2cc(C(=O)O)nc3c2c(C(C)C)nn3-c2cccc(C)c2)CC1 [compound 228, 4-[4-(2-methoxyethyl)piperidin-1-yl]-1-(3-methylphenyl)-3-(propan-2-yl)-1H-pyrazolo[3,4-b]pyridine-6-carboxylic acid]
- % Activity at 1 μM (Ieq*) [1]: 280%
- EC50 [2]: < 30 nM

SMILES: O=C(O)c1cc(N2CCC3(CC2)CCN(C2CCC2)CC3)c2c(C3CCC3)nn(-c3ccc(F)cc3)c2n1 [compound 894, 3-cyclobutyl-4-(9-cyclobutyl-3,9-diazaspiro[5.5]undecan-3-yl)-1-(4-fluorophenyl)-1H-pyrazolo[3,4-b]pyridine-6-carboxylic acid]
- % Activity at 1 μM (AUC**) [3]: 300%

SMILES: CN1CCC2(CC1)CCN(c1cc(C(=O)O)nc3c1c(C1CCC1)nn3-c1ccccc1)CC2 [compound 699, 3-cyclobutyl-4-(9-methyl-3,9-diazaspiro[5.5]undecan-3-yl)-1-phenyl-1H-pyrazolo[3,4-b]pyridine-6-carboxylic acid]
- EC50 [4]: 162 nM

SMILES: CC(C)c1nn(-c2ccnc(N3CCOCC3)c2)c2nc(C(=O)O)cc(-c3ccc(N4CCOCC4)cc3)c12 [compound 201, 4-[4-(morpholin-4-yl)phenyl]-1-[2-(morpholin-4-yl)pyridin-4-yl]-3-(propan-2-yl)-1H-pyrazolo[3,4-b]pyridine-6-carboxylic acid]
- % Activity at 1 μM (AUC**) [3]: 254%
- EC50 [4]: < 30 nM
